Experimental findings from patent publication US20260250257A1, “ANTIBACTERIAL AND SYNERGISTIC ACTIVE COMPOUND AND USE THEREOF” (EAST CHINA UNIVERSITY OF SCIENCE AND TECHNOLOGY, priority 2023, published 2026) are described below.

Converted amounts (≈) assume the structure as drawn.

Common to all, as to assay type: cell-based
Assay [1] has as its system ATCC13883 strain (Klebsiella pneumoniae). Put plainly: Broth microdilution, antibacterial activity of the compound used alone. As to conditions: for MIC: read-out: Antibacterial activity of the compound of Formula I, ATCC13883. An excerpt:
(§1) The broth microdilution method was used to test the antibacterial effects of the compounds of the present invention against various Gram-negative bacterial strains when used alone.

Assay [2] has as its system ATCC25922 strain (Escherichia coli). The assay is described as above. As to conditions: for MIC: read-out: Antibacterial activity of the compound of Formula I, ATCC25922.
Source text: as §1

The test system of assay [3] is ATCC19606 strain (Acinetobacter baumannii). Described as above. As to conditions: for MIC: read-out: Antibacterial activity of the compound of Formula I, ATCC19606.
Source text: as §1

Assay [4] has as its system ATCC9027 strain (Pseudomonas aeruginosa). The assay is described as above. The conditions noted are these: for MIC: read-out: Antibacterial activity of the compound of Formula I, ATCC9027.
Source text: as §1

Assay [5] deals with ATCC13883 strain (Klebsiella pneumoniae). Put plainly: Checkerboard antibacterial synergistic activity test with polymyxin E (FIC). Further details: key: FIC≤0.5 synergy; 0.5–1 additive; 1–2 indifferent; ≥2 antagonism. The conditions noted are these: combined with polymyxin E. Summed up:
(§2)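 First, two-fold series of polymyxin E (16–0.015 μg/ml) and compound (256–4 μg/ml) were made in MH broth. Next, combinations went into a 96-well grid, bacterial liquid was added, and plates sat at 37° C. for 16 h. Finally, FIC was computed and classed (≤0.5 synergistic).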

Assay [6] has as its system ATCC25922 strain (Escherichia coli). Described as above. Further details: key: FIC≤0.5 synergy; 0.5–1 additive; 1–2 indifferent; ≥2 antagonism. The conditions noted are these: combined with polymyxin E. Summed up:
as §2

In assay [7] the test system is ATCC19606 strain (Acinetobacter baumannii). The description is as above. As to conditions: combined with polymyxin E. Details: key: FIC≤0.5 synergy; 0.5–1 additive; 1–2 indifferent; ≥2 antagonism. The essentials:
as §2

Assay [8] relates to ATCC9027 strain (Pseudomonas aeruginosa). The description is as above. Further details: key: FIC≤0.5 synergy; 0.5–1 additive; 1–2 indifferent; ≥2 antagonism. The conditions noted are these: combined with polymyxin E. Summed up:
as §2

Consider `NC(N)=Nc1nc(-c2cccc(Oc3ccc(Cl)cc3Cl)c2)cs1` [Compound I-95], for which the “Antibacterial activity of the compound of Formula I, ATCC13883” value (“Antibacterial activity … ATCC13883” below) in assay [1] was found to be 256 µg/mL. The “Antibacterial activity of the compound of Formula I, ATCC25922” value (from here on “Antibacterial activity … ATCC25922”) in assay [2] was found to be 256 µg/mL. Also, the “Antibacterial activity of the compound of Formula I, ATCC19606” value (shortened to “Antibacterial activity … ATCC19606”) in assay [3] is 256 µg/mL. The “Antibacterial activity of the compound of Formula I, ATCC9027” value (“Antibacterial activity … ATCC9027” below) in assay [4] is 256 µg/mL. Also, the “Synergistic activity (FIC value) ATCC13883” value in assay [5] turned out to be 0.19. In addition, the “Synergistic activity (FIC value) ATCC25922” value in assay [6] is listed as 0.04. In addition, the “Synergistic activity (FIC value) ATCC19606” value in assay [7] worked out at 0.38. Also, the “Synergistic activity (FIC value) ATCC9027” value in assay [8] worked out at 0.04.

On to `NC(N)=Nc1nc(-c2ccc(F)cc2Oc2ccc(Cl)cc2Cl)c(Cl)s1` [Compound I-90], for which, in assay [1], the “Antibacterial activity … ATCC13883” value stood at 256 µg/mL. For the same compound, the “Antibacterial activity … ATCC25922” value in assay [2] is 256 µg/mL. The “Antibacterial activity … ATCC19606” value in assay [3] was 256 µg/mL. The “Antibacterial activity … ATCC9027” value in assay [4] worked out at 256 µg/mL. Also, in assay [5], the “Synergistic activity (FIC value) ATCC13883” value turned out to be 0.13. Further, in assay [6], the “Synergistic activity (FIC value) ATCC25922” value is listed as 0.15. The “Synergistic activity (FIC value) ATCC19606” value in assay [7] turned out to be 0.03. For the same compound, in assay [8], the “Synergistic activity (FIC value) ATCC9027” value turned out to be 0.18.

In the case of `Ic1cccc(-c2csc(N=C3NCCCN3)n2)c1` [Compound I-180], the “Antibacterial activity … ATCC13883” value in assay [1] was found to be 256 µg/mL. Moreover, the “Antibacterial activity … ATCC25922” value in assay [2] was 256 µg/mL. Besides, the “Antibacterial activity … ATCC19606” value in assay [3] is 256 µg/mL. For the same compound, the “Antibacterial activity … ATCC9027” value in assay [4] is 256 µg/mL. The “Synergistic activity (FIC value) ATCC13883” value in assay [5] worked out at 1.25. The “Synergistic activity (FIC value) ATCC25922” value in assay [6] was found to be 1.25. Besides, the “Synergistic activity (FIC value) ATCC19606” value in assay [7] is reported as 0.26. Moreover, the “Synergistic activity (FIC value) ATCC9027” value in assay [8] is reported as 1.25.

Regarding `NC(N)=Nc1nc(-c2cccc(NC(=O)NC3CC3)c2)cs1` [Compound I-31], the “Antibacterial activity … ATCC13883” value in assay [1] amounted to 256 µg/mL. Further, in assay [2], the “Antibacterial activity … ATCC25922” value was found to be 256 µg/mL. Also, the “Antibacterial activity … ATCC19606” value in assay [3] is 256 µg/mL. In assay [4], the “Antibacterial activity … ATCC9027” value amounted to 256 µg/mL. Further, the “Synergistic activity (FIC value) ATCC13883” value in assay [5] worked out at 0.31. For the same compound, the “Synergistic activity (FIC value) ATCC25922” value in assay [6] worked out at 0.56. For the same compound, in assay [7], the “Synergistic activity (FIC value) ATCC19606” value is 0.25. Also, the “Synergistic activity (FIC value) ATCC9027” value in assay [8] turned out to be 0.5.

As to `CNc1cc(C)cc(-c2csc(N=C(N)N)n2)c1` [Compound I-23], the “Antibacterial activity … ATCC13883” value in assay [1] was 256 µg/mL. Moreover, in assay [2], the “Antibacterial activity … ATCC25922” value worked out at 256 µg/mL. Further, the “Antibacterial activity … ATCC19606” value in assay [3] amounted to 256 µg/mL. For the same compound, the “Antibacterial activity … ATCC9027” value in assay [4] was determined as 256 µg/mL. The “Synergistic activity (FIC value) ATCC13883” value in assay [5] turned out to be 0.52. In assay [6], the “Synergistic activity (FIC value) ATCC25922” value amounted to 0.63. For the same compound, the “Synergistic activity (FIC value) ATCC19606” value in assay [7] is recorded as 0.52. The “Synergistic activity (FIC value) ATCC9027” value in assay [8] is reported as 1.25.

In the case of `CC(C)=CCOc1cc(-c2nc(N=C(N)N)oc2Cl)cc(OCC=C(C)C)c1O` [Compound I-50], the “Antibacterial activity … ATCC13883” value in assay [1] was 256 µg/mL. In assay [2], the “Antibacterial activity … ATCC25922” value turned out to be 256 µg/mL. Moreover, in assay [3], the “Antibacterial activity … ATCC19606” value turned out to be 256 µg/mL. Moreover, the “Antibacterial activity … ATCC9027” value in assay [4] came out at 256 µg/mL. Besides, the “Synergistic activity (FIC value) ATCC13883” value in assay [5] is recorded as 0.16. In assay [6], the “Synergistic activity (FIC value) ATCC25922” value is on record as 0.26. In assay [7], the “Synergistic activity (FIC value) ATCC19606” value was determined as 0.13. Moreover, in assay [8], the “Synergistic activity (FIC value) ATCC9027” value turned out to be 0.31.

As for `CS(=O)(=O)Nc1cccc(-c2csc(N=C(N)N)n2)c1` [Compound I-32], in assay [1], the “Antibacterial activity … ATCC13883” value was 256 µg/mL. Also, in assay [2], the “Antibacterial activity … ATCC25922” value stood at 256 µg/mL. Besides, the “Antibacterial activity … ATCC19606” value in assay [3] amounted to 256 µg/mL. The “Antibacterial activity … ATCC9027” value in assay [4] was found to be 256 µg/mL. The “Synergistic activity (FIC value) ATCC13883” value in assay [5] came to 1.25. In addition, the “Synergistic activity (FIC value) ATCC25922” value in assay [6] worked out at 1.25. The “Synergistic activity (FIC value) ATCC19606” value in assay [7] turned out to be 0.25. In addition, the “Synergistic activity (FIC value) ATCC9027” value in assay [8] was found to be 0.52.

For the compound `NC(N)=Nc1nc(-c2cc(I)c(O)c(I)c2)co1` [Compound I-35], the “Antibacterial activity … ATCC13883” value in assay [1] came to 256 µg/mL. In assay [2], the “Antibacterial activity … ATCC25922” value was 256 µg/mL. Also, the “Antibacterial activity … ATCC19606” value in assay [3] was found to be 256 µg/mL. For the same compound, the “Antibacterial activity … ATCC9027” value in assay [4] amounted to 256 µg/mL. For the same compound, in assay [5], the “Synergistic activity (FIC value) ATCC13883” value was found to be 0.19. The “Synergistic activity (FIC value) ATCC25922” value in assay [6] was 0.52. For the same compound, the “Synergistic activity (FIC value) ATCC19606” value in assay [7] is listed as 0.13. For the same compound, the “Synergistic activity (FIC value) ATCC9027” value in assay [8] is 1.25.

Regarding `Oc1c(Br)cc(-c2coc(N=C3NCCCN3)n2)cc1Br` [Compound I-178], the “Antibacterial activity … ATCC13883” value in assay [1] worked out at 256 µg/mL. For the same compound, the “Antibacterial activity … ATCC25922” value in assay [2] came to 256 µg/mL. Besides, the “Antibacterial activity … ATCC19606” value in assay [3] was found to be 256 µg/mL. Further, the “Antibacterial activity … ATCC9027” value in assay [4] came out at 256 µg/mL. The “Synergistic activity (FIC value) ATCC13883” value in assay [5] is given as 1.25. Moreover, the “Synergistic activity (FIC value) ATCC25922” value in assay [6] is given as 1.25. Besides, in assay [7], the “Synergistic activity (FIC value) ATCC19606” value is reported as 0.51. Besides, the “Synergistic activity (FIC value) ATCC9027” value in assay [8] is given as 1.25.

With `NC(N)=Nc1nc(-c2cccc3cccnc23)co1` [Compound I-67], in assay [1], the “Antibacterial activity … ATCC13883” value came out at 256 µg/mL. Also, the “Antibacterial activity … ATCC25922” value in assay [2] is 256 µg/mL. Also, the “Antibacterial activity … ATCC19606” value in assay [3] amounted to 256 µg/mL. The “Antibacterial activity … ATCC9027” value in assay [4] worked out at 256 µg/mL. Also, in assay [5], the “Synergistic activity (FIC value) ATCC13883” value is 1.25. Besides, the “Synergistic activity (FIC value) ATCC25922” value in assay [6] is 0.63. The “Synergistic activity (FIC value) ATCC19606” value in assay [7] came out at 0.5. Further, the “Synergistic activity (FIC value) ATCC9027” value in assay [8] was determined as 1.25.

`CSc1cc2cc(C)cc(C)n2c1-c1nc(N=C2NCCCN2)sc1C` [Compound I-195]: in assay [1], the “Antibacterial activity … ATCC13883” value was 256 µg/mL. In addition, the “Antibacterial activity … ATCC25922” value in assay [2] was found to be 256 µg/mL. For the same compound, the “Antibacterial activity … ATCC19606” value in assay [3] was determined as 256 µg/mL. Further, the “Antibacterial activity … ATCC9027” value in assay [4] worked out at 256 µg/mL. For the same compound, the “Synergistic activity (FIC value) ATCC13883” value in assay [5] worked out at 0.25. The “Synergistic activity (FIC value) ATCC25922” value in assay [6] was determined as 0.31. The “Synergistic activity (FIC value) ATCC19606” value in assay [7] is reported as 0.14. Moreover, the “Synergistic activity (FIC value) ATCC9027” value in assay [8] worked out at 0.52.

For the compound `NC(N)=Nc1nc(-c2ccc(OCc3ccccc3)c3nc(O)ccc23)cs1` [Compound I-114], the MIC in assay [1], in assay [2], in assay [3] and in assay [4] was 256 µg/mL (≈ 654 µM) each time. The “Synergistic activity (FIC value) ATCC13883” value in assay [5] is 1.25. The “Synergistic activity (FIC value) ATCC25922” value in assay [6] came to 0.5. The “Synergistic activity (FIC value) ATCC19606” value in assay [7] worked out at 0.27. Also, the “Synergistic activity (FIC value) ATCC9027” value in assay [8] is 1.25.

For `NC(N)=Nc1nc(-c2ccc(Sc3ccccc3)cc2)cs1` [Compound I-107], the MIC in assay [1], in assay [2], in assay [3] and in assay [4] was 256 µg/mL (≈ 784 µM) throughout. In assay [5], the “Synergistic activity (FIC value) ATCC13883” value turned out to be 1.25. Besides, the “Synergistic activity (FIC value) ATCC25922” value in assay [6] was 0.53. Further, in assay [7], the “Synergistic activity (FIC value) ATCC19606” value is 1.25. In addition, the “Synergistic activity (FIC value) ATCC9027” value in assay [8] was 1.25.
